Earlier results, collected in patent publication US20050273047A1, “System and method for transdermal delivery of an anticoagulant” (priority 2004, published 2005).

Target: Factor Xa (Homo sapiens, UniProt P00742)
Conditions: as compared to the corresponding methyl ester; cited from earlier work

Chain of Factor Xa (P00742 235-488 limits assumed): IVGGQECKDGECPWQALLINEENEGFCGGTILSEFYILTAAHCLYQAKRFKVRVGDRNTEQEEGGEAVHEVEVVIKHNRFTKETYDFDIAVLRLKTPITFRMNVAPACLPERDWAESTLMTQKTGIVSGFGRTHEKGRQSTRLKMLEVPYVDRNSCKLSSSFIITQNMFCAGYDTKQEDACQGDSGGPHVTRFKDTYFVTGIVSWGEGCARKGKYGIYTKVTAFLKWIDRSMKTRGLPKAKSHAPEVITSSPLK
Chain of Factor Xa (P00742 41-179 partner limits assumed): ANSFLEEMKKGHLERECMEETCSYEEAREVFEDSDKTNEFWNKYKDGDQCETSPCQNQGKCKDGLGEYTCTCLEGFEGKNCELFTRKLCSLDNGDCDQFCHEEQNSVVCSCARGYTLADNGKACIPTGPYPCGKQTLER

In the case of `CC(=N)N1CC[C@H](Oc2ccc([C@H](Cc3ccc4ccc(C(=N)N)cc4c3)C(=O)O)cc2)C1` [compound shown in FIG. 7], the “enhancement of Factor Xa selectivity by the carboxylic acid” value is listed as “about 100 fold”.
